In patent publication US20200288710A1, “SUBSTITUTED SULPHONAMIDES FOR CONTROLLING ANIMAL PESTS” (BAYER CROPSCIENCE AKTIENGESELLSCHAFT, priority 2016, published 2020) one finds pest or weed control data, which are given here for 39 molecules.

What all share (assay type): in vivo
Test [1] concerns Phaedon cochleariae. As to the kind of experiment: Phaedon cochleariae spray test. The conditions noted are these: foliar, 168 h, Chinese cabbage leaf discs, larvae, after 7 days, read-out: efficacy. On the procedure: Phaedon cochleariae—Spray Test
To produce a suitable preparation of active compound, 1 part by weight of active compound is dissolved using the specified parts by weight of solvent and made up with water containing an emulsifier concentration of 1000 ppm until the desired concentration is attained. To produce further test concentrations, the formulation is diluted with emulsifier-containing water.
After 7 days, the efficacy in % is determined. 100% means that all the beetle larvae have been killed; 0% means that no beetle larvae have been killed.

Test [2] deals with Myzus persicae. As to the kind of experiment: Myzus persicae oral test. The conditions noted are these: 120 h, 20 ppm, oral uptake, after 5 days, read-out: efficacy. In outline:
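Aphids of mixed ages imbibe, through parafilm, compound solution (acetone stock, water-diluted) combined with sugar-supplemented IPL41 medium to 200 μl. Efficacy read at day 5 as percent killed, 0% meaning no deaths.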

For test [3], the system named is Myzus persicae. As to the kind of experiment: Myzus persicae spray test (Chinese cabbage leaf discs). The conditions noted are these: foliar, 120 h, 500 g/ha, after 5-6 days, read-out: efficacy. In outline:
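Formulated compound in acetone/dimethylformamide, diluted in water with 1000 ppm emulsifier, was sprayed onto Brassica pekinensis leaf discs carrying mixed-stage Myzus persicae. Percent mortality was read 5-6 days later (0% = no aphids killed, 100% = all killed).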

Test [4] relates to Meloidogyne incognita. As to the kind of experiment: Meloidogyne incognita test. The conditions noted are these: 336 h, lettuce, after 14 days, read-out: nematicidal efficacy (formation of galls). In outline:
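Gall formation on lettuce roots scored after 14 days: 0% means gall count equals untreated control, 100% means none. Sand vessels held the compound (acetone concentrate diluted in water), southern root-knot nematode egg/larvae suspension and lettuce seeds.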

Take `COc1ccc(Br)c(S(=O)(=O)NC(=O)c2cn(C)c(-c3c(F)cccc3F)n2)c1` [Example 143]: the pest or weed control at 500 g/ha in test [1] amounted to 100%; in test [3], 90%. In addition, the pest or weed control at 20 ppm in test [2] was 90%.
With `CCc1ccccc1S(=O)(=O)NC(=O)c1cn(C)c(-c2nccc3ccccc23)n1` [Example 469], the pest or weed control at 500 g/ha was 100% in test [1] and 90% in test [3]. The pest or weed control at 20 ppm in test [2] is 100%.
`Cn1cc(C(=O)NS(=O)(=O)c2c(Cl)cccc2C(F)(F)F)nc1-c1cccc(Cl)c1Cl` [Example 467]: the pest or weed control at 500 g/ha in test [1] and in test [3] was 100% in each case. Further, the pest or weed control at 20 ppm in test [2] is 100%.
Regarding `CCOc1ccc(Cl)c(S(=O)(=O)NC(=O)c2cn(C)c(-c3c(F)cccc3F)n2)c1` [Example 387], the pest or weed control at 500 g/ha in test [1] and in test [3] was 100% throughout. For the same molecule, in test [2], the pest or weed control at 20 ppm came out at 100%.
`Cn1cc(C(=O)NS(=O)(=O)c2ccccc2Cl)nc1-c1nccc2ccccc12` [Example 464]: the pest or weed control at 500 g/ha in test [1] and in test [3] was 100% in each case. The pest or weed control at 20 ppm in test [2] was 90%.
Consider `COc1ccc(Cl)c(S(=O)(=O)NC(=O)c2nc(-c3c(F)cccc3F)c(C)n2C)c1` [Example 307], for which the pest or weed control at 20 ppm in test [4] was 100%. Further, in test [1], the pest or weed control at 500 g/ha was 100%.
For the molecule `CCCc1cccc(C(F)(F)F)c1S(=O)(=O)NC(=O)c1cn(C)c(-c2c(F)cccc2F)n1` [Example 370], the pest or weed control at 500 g/ha in test [1] came to 100%; in test [3], 90%. The pest or weed control at 20 ppm in test [2] was determined as 100%.
With `COc1cc(S(=O)(=O)NC(=O)c2cn(C)c(-c3ncccc3F)n2)c(C)cc1Br` [Example 610], the pest or weed control at 500 g/ha in test [1] and in test [3] was 100% in each case. Also, the pest or weed control at 20 ppm in test [2] was 100%.
`Cc1ccccc1S(=O)(=O)NC(=O)c1cn(C)c(-c2nccc3ccccc23)n1` [Example 465]: the pest or weed control at 500 g/ha in test [1] and in test [3] was 100% each time. The pest or weed control at 20 ppm in test [2] turned out to be 100%.
Regarding `COc1ccc(OC)c(S(=O)(=O)NC(=O)c2nc(-c3c(F)cccc3F)n(C)c2C)c1` [Example 413], the figures for the pest or weed control at 500 g/ha in test [1] and in test [3] were 83% and 90%, respectively.
As to `Cn1cc(C(=O)NS(=O)(=O)c2c(Cl)cccc2Br)nc1-c1c(F)cccc1F` [Example 430], the pest or weed control at 500 g/ha in test [1] and in test [3] was 100% throughout. The pest or weed control at 20 ppm in test [2] stood at 100%.
In the case of `Cc1ccccc1S(=O)(=O)NC(=O)c1nc(-c2c(F)cccc2F)n(C)c1C` [Example 196], the pest or weed control at 500 g/ha in test [1] stood at 100%. Besides, the pest or weed control at 20 ppm in test [2] was found to be 100%.
Consider `Cn1cc(C(=O)NS(=O)(=O)c2c(Cl)cccc2Br)nc1-c1cccc(Cl)c1Cl` [Example 466], for which the pest or weed control at 500 g/ha worked out at 100% in test [1] and 90% in test [3]. In addition, in test [2], the pest or weed control at 20 ppm is 100%.
As for `Cc1cc(F)c(F)cc1S(=O)(=O)NC(=O)c1cn(C)c(-c2ccccc2Cl)n1` [Example 290], the pest or weed control at 500 g/ha in test [1] and in test [3] was 100% each time. In test [2], the pest or weed control at 20 ppm amounted to 100%.
For `Cc1ccc(F)cc1S(=O)(=O)NC(=O)c1cc(C)n(-c2ncccc2Br)n1` [Example 303], the pest or weed control at 500 g/ha in test [1] stood at 83%; in test [3], 100%. For the same molecule, the pest or weed control at 20 ppm in test [2] is 100%.
`Cc1cccc(C(C)C)c1S(=O)(=O)NC(=O)c1cn(C)c(-c2c(F)cccc2F)n1` [Example 361]: the pest or weed control at 20 ppm in test [4] was found to be 90%. For the same molecule, the pest or weed control at 500 g/ha in test [1] amounted to 100%.
In the case of `O=C(NS(=O)(=O)c1ccc(Cl)cc1)c1nc(-c2ccccc2Cl)n(-c2ccccc2)c1Cl` [Example 105], in test [1], the pest or weed control at 500 g/ha worked out at 100%.
As to `COc1ccc(Cl)c(S(=O)(=O)NC(=O)c2nc(-c3ccccc3Cl)n(C)c2Br)c1` [Example 222], the pest or weed control at 20 ppm in test [4] was found to be 100%. Further, the pest or weed control at 500 g/ha in test [1] stood at 100%.
With `CCc1ccc(CC)c(S(=O)(=O)NC(=O)c2cn(C)c(-c3c(F)cccc3F)n2)c1` [Example 340], the pest or weed control at 20 ppm in test [4] came out at 90%. Also, the pest or weed control at 500 g/ha in test [1] was determined as 100%.
In the case of `COc1cc(S(=O)(=O)NC(=O)c2cn(C)c(-c3ncccc3Cl)n2)c(C)cc1Br` [Example 611], the values for the pest or weed control at 500 g/ha in test [1] and in test [3] were 100% and 90%, respectively. Also, the pest or weed control at 20 ppm in test [2] came to 100%.
Regarding `COc1cc(S(=O)(=O)NC(=O)c2cc(C)n(-c3ncccc3Br)n2)c(C)cc1Br` [Example 300], the pest or weed control at 500 g/ha in test [1] was determined as 100%; in test [3], 90%. Also, in test [2], the pest or weed control at 20 ppm is 100%.
On to `Cc1c(-c2c(F)cccc2F)nc(C(=O)NS(=O)(=O)c2ccccc2Br)n1C` [Example 309], for which, in test [4], the pest or weed control at 20 ppm came out at 100%. The pest or weed control at 500 g/ha in test [1] was determined as 100%.
Regarding `CCc1ccc(Cl)cc1S(=O)(=O)NC(=O)c1cn(C)c(-c2cccc(Cl)c2Cl)n1` [Example 461], the pest or weed control at 500 g/ha in test [1] and in test [3] was 100% throughout. Also, the pest or weed control at 20 ppm in test [2] turned out to be 100%.
`Cc1c(-c2c(F)cccc2F)nc(C(=O)NS(=O)(=O)c2ccccc2Cl)n1C` [Example 308]: the pest or weed control at 20 ppm in test [4] was determined as 90%. Further, the pest or weed control at 500 g/ha in test [1] is 100%.
Consider `Cc1cccc(Cl)c1S(=O)(=O)NC(=O)c1cc(C)n(-c2ncccc2Br)n1` [Example 304], for which the pest or weed control at 500 g/ha in test [1] and in test [3] was 100% throughout. Also, the pest or weed control at 20 ppm in test [2] was 100%.
Turning to `Cc1ccccc1S(=O)(=O)NC(=O)c1cn(C)c(-c2ncccc2Cl)n1` [Example 540], the pest or weed control at 500 g/ha in test [1] and in test [3] was 100% in each case. Besides, the pest or weed control at 20 ppm in test [2] was 100%.
Regarding `COc1ccc(C)c(S(=O)(=O)NC(=O)c2cn(C)c(-c3cccc(Cl)c3Cl)n2)c1` [Example 460], the results for the pest or weed control at 500 g/ha in test [1] and in test [3] were 83% and 100%, respectively.
As to `Cn1cc(C(=O)NS(=O)(=O)c2ccccc2Cl)nc1-c1cccc2ccccc12` [Example 479], the pest or weed control at 20 ppm in test [4] was 90%. Moreover, the pest or weed control at 500 g/ha in test [1] is 100%.
In the case of `COc1ccc(Cl)c(S(=O)(=O)NC(=O)c2cn(C)c(-c3ncccc3F)n2)c1` [Example 514], the values for the pest or weed control at 20 ppm in test [4] and in test [2] were 90% and 100%, respectively. Moreover, the pest or weed control at 500 g/ha in test [3] is 100%.
For the molecule `CCc1ccsc1S(=O)(=O)NC(=O)c1cn(C)c(-c2c(F)cccc2F)n1` [Example 419], the results for the pest or weed control at 20 ppm in test [4] and in test [2] were 90% and 100%, respectively. For the same molecule, the pest or weed control at 500 g/ha in test [3] is 100%.
For `Cn1cc(C(=O)NS(=O)(=O)c2ccc(Cl)c(Cl)c2)nc1-c1ccccc1Cl` [Example 165], the values for the pest or weed control at 500 g/ha in test [1] and in test [3] were 100% and 90%, respectively. In addition, in test [2], the pest or weed control at 20 ppm came to 90%.
As to `Cc1cc(C(=O)NS(=O)(=O)c2ccccc2Cl)nn1-c1c(F)cccc1F` [Example 1], the pest or weed control at 20 ppm in test [4] and in test [2] was 100% each time. Further, the pest or weed control at 500 g/ha in test [3] was 100%.
On to `Cn1cc(C(=O)NS(=O)(=O)c2ccccc2Cl)nc1-c1ncccc1F` [Example 499], for which the figures for the pest or weed control at 20 ppm in test [4] and in test [2] were 90% and 100%, respectively. The pest or weed control at 500 g/ha in test [3] worked out at 100%.
As for `Cn1cc(C(=O)NS(=O)(=O)c2ccccc2Br)nc1-c1cccc(Cl)c1Cl` [Example 555], the results for the pest or weed control at 20 ppm in test [4] and in test [2] were 90% and 100%, respectively. In addition, the pest or weed control at 500 g/ha in test [3] stood at 90%.
Take `COc1cc(C(=O)NS(=O)(=O)c2ccccc2Br)nn1-c1ccccc1Cl` [Example 277]: the pest or weed control at 20 ppm in test [4] is 90%; in test [2] it was 100%. Further, in test [3], the pest or weed control at 500 g/ha was determined as 100%.
As to `COc1ccc(F)cc1S(=O)(=O)NC(=O)c1cn(C)c(-c2ccccc2Cl)n1` [Example 427], the results for the pest or weed control at 20 ppm in test [4] and in test [2] were 90% and 100%, respectively. The pest or weed control at 500 g/ha in test [3] amounted to 100%.
In the case of `Cn1cc(C(=O)NS(=O)(=O)c2sc(Cl)cc2Br)nc1-c1ccccc1Cl` [Example 426], the results for the pest or weed control at 20 ppm in test [4] and in test [2] were 90% and 100%, respectively. The pest or weed control at 500 g/ha in test [3] came to 100%.
As to `Cc1cc(C(=O)NS(=O)(=O)c2ccccc2Br)nn1-c1ncccc1Br` [Example 296], the pest or weed control at 20 ppm in test [4] and in test [2] was 90% each time. The pest or weed control at 500 g/ha in test [3] amounted to 90%.
`Cn1cc(C(=O)NS(=O)(=O)c2ccccc2Cl)nc1-c1cc(F)ccc1F` [Example 515]: the pest or weed control at 20 ppm in test [4] is 90%; in test [2], 100%. Further, the pest or weed control at 500 g/ha in test [3] is 90%.
